Data reported in patent publication US20120213706A1, “RECONSTITUTED TUMOR MICROENVIRONMENT FOR ANTICANCER DRUG DEVELOPMENT” (UNIVERSITY OF MEDICINE AND DENTISTRY OF NEW JERSEY, priority 2009, published 2012).
Numbered stars: 1 amine (or outer) side, 2 acyl side, 3 side chain; on linkers, the order of the positions; unused ones are H or OH. Bridge positions count the residues as written; N and C are the ends. Square brackets hold non-standard residues; d marks the D form. Peptide text beside a SMILES is read from it. * marks the point of attachment. X1 = CC[C@H](C)[C@@H](N[*:1])[C@@H](O)CC(=O)O[C@H](C(=O)[C@H](C)C(=O)[*:2])C(C)C; NMeY = CN[C@@H](Cc1ccc(O)cc1)C(=O)O; dNMeL = CN[C@H](CC(C)C)C(=O)O; Pyruvoyl = CC(=O)C(=O)*

Assays:
Assay type in all cases: cell-based
Jak/Stat3 signaling = Jak/Stat3 signaling in tumor cells following treatment; conditions: following dehydrodidemnin B treatment
[1] = tested on: tumor cells in the reconstituted tumor microenvironment; experiment: growth of tumor cells in the reconstituted tumor microenvironment; conditions: tumor cells established within the reconstituted tumor microenvironment
Experimental: The three cell system in Examples 1 and 2 is prepared and used to test standard chemotherapeutic agents for activity against cancer cell lines, such as the breast cancer cell lines MDAMB231 and MDAMB435 representing basal subtype and MCF7 and SKBR3 representing luminal subtype of breast cancer. Reconstitution is carried out in 96 well plates by co-culturing a fixed number of tumor cells and carcinoma-associated fibroblast-like cells plus TAMs either alone or admixed with differing amounts of cells representing cell types in tumor milieu. Tumor growth is monitored at these sites in accordance with the foregoing. As the tumor cells express luciferase, tumor growth is monitored even at early time points by bioluminescence imaging following injection of D-luciferin on a Kodak MM2000 Imager. Again, all the tumor cell lines tested in culture are tested in this assay.
The reconstituted system is used to identify synergistic combinations using a panel of standard chemotherapeutic agents and Jak/STAT3 inhibitors. The Chou Talalay combination index analysis is used and the data analyzed using Calcusyn software (Biosoft ver 3). […] Growth of tumors is monitored by bioluminescence imaging using a KODAK […] Imaging station as described earlier. […]

[2] = tested on: FSP positive tumor stroma; experiment: FSP positive tumor stroma after treatment; conditions: fibroblast surface protein (FSP) as marker for tumor stroma
tumor cells = experiment: tumor cell demise following treatment; conditions: following dehydrodidemnin B treatment
Text: Accordingly, the instant invention is useful in drug screening assays for known and novel therapeutics targeting either the tumor cell or components of the tumor cell environment.

CC[C@H](C)[C@H]1NC(=O)[C@@H](NC(=O)[C@@H](CC(C)C)N(C)C(=O)[C@@H]2CCCN2C(=O)C(C)=O)[C@@H](C)OC(=O)[C@H](Cc2ccc(OC)cc2)N(C)C(=O)[C@@H]2CCCN2C(=O)[C@H](CC(C)C)NC(=O)[C@@H](C)C(=O)[C@H](C(C)C)OC(=O)C[C@@H]1O [dehydrodidemnin B] (Pyruvoyl-P[dNMeL]T[X1]LP[NMeY](Me); ester 3-C)
Jak/Stat3 signaling in tumor cells (Jak/Stat3 signaling): inhibition of Jak/Stat3 signaling | growth of tumor cells [1]: can be inhibited | growth of tumor cells ([1]; listed as Dehydrodidemnin B): inhibited | FSP positive tumor stroma [2]: decreased FSP positive tumor stroma | fate of tumor cells after inhibition of Jak/Stat3 signaling (tumor cells): led to the demise of tumor cells
